Measured values reported in article PMC10809502, “Application of a new MDCKII-MDR1 cell model to measure the extent of drug distribution in vitro at equilibrium for prediction of in vivo unbound brain-to-plasma drug distribution” (Fluids and Barriers of the CNS, 2024).

Legend:
[1] = cited from earlier work; for Kp,uu,brain in vivo: Göttingen minipig
[2] = biological target: T1, Bovine Serum Albumin (BSA) (Bos taurus, UniProt P02769); test: Fraction unbound in 35 μM BSA, equilibrium dialysis; settings: for fraction unbound at 5 h, 1 μM: bovine; for Predicted fu (%) BSA 35 μM (D = 20): calculated with Eq. 2 from fu measured in 100% matrices (ref 20), dilution factor 20
T1 sequence (P02769 25-607): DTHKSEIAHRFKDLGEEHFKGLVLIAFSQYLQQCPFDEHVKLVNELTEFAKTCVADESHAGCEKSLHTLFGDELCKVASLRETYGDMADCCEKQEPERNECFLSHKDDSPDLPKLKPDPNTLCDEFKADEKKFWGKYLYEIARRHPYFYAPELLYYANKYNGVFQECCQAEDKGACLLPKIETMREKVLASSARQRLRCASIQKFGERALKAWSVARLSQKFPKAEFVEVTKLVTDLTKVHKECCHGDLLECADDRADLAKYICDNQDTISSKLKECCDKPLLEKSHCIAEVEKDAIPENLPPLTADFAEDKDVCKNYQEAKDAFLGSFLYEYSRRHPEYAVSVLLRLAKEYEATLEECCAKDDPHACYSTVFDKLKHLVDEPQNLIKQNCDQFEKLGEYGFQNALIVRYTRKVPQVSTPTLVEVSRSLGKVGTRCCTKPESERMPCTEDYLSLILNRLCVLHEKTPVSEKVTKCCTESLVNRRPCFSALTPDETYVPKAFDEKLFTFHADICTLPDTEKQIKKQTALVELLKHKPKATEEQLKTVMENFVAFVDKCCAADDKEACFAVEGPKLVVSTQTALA

[3] = Fraction unbound in 20-fold diluted brain homogenate, equilibrium dialysis; settings: for fraction unbound at 5 h, 1 μM: Göttingen, minipig, pH 7.4; for Predicted fu (%) Brain (D = 20): calculated with Eq. 2 from fu measured in 100% matrices (ref 20), dilution factor 20
P-gp (human MDR1) [4] = test: in vitro; settings: dog
P-gp (human MDR1) [5] = test: Equilibrium distribution study (in vitro Kp,brain / Kp,uu,brain) across MDCKII-MDR1 cells, BSA apical, brain homogenate basolateral, Uni-L and Bi-L; settings: dog; for Kp at 29 h, 1 μM: brain homogenate/BSA ratio
[6] = biological target: T1, Bovine Serum Albumin (BSA); test: Fraction unbound in 700 μM BSA in phosphate buffer; type: in vitro ADME; set-up: BSA (purity > 98%) was obtained from Beijing SeaskyBio Technology Co. Ltd; purchased Beijing SeaskyBio Technology Co. Ltd. BSAS (Lot 541); settings: read-out: fu, 700 μM BSA
MDCKII-MDR1 cell line = test system: MDCKII-MDR1 cell line; set-up: method as in PMID 34756975, PMID 15236458; settings: cited from earlier work
[7] = 20-fold diluted brain homogenate
[8] = MDCK-MDR1, pH 7.5, in vitro determined Kp,brain Bi-L, Bi-L (compound loaded both sides), 29 h
[9] = MDCK-MDR1, pH 7.5, in vitro determined Kp,brain Uni-L, Uni-L (compound loaded apically in BSA), 29 h
[10] = pH 7.5, Recovery Bi-L, mass balance Eq. 7, Bi-L, 29 h, % printed
[11] = pH 7.5, Recovery Uni-L, mass balance Eq. 6, Uni-L, 29 h, % printed
[12] = pH 7.5, assay recovery, equilibrium distribution experiment, setup (Uni-L/Bi-L) not given
[13] = MDCK-MDR1, pH 7.4, with an inhibitor present (name and concentration not stated)

Row | Compound | Kp,uu,brain in vivo [1] | fraction unbound at 5 h, 1 μM ([2]; 35 μM BSA) | Predicted fu (%) BSA 35 μM (D = 20) [2] [%] | fraction unbound at 5 h, 1 μM [3, 7] | Predicted fu (%) Brain (D = 20) [3] [%] | Papp B→A at 60 min, 0.5 μM (P-gp (human MDR1) [4]; MDCK-MDR1, pH 7.4) [×10⁻⁶ cm/s] | efflux ratio at 60 min, 0.5 μM (P-gp (human MDR1) [4]; MDCK-MDR1, pH 7.4) | Kp at 29 h, 1 μM (P-gp (human MDR1) [5]; [8]) | Kp at 29 h, 1 μM (P-gp (human MDR1) [5]; [9]) | recovery at 29 h, 1 μM (P-gp (human MDR1) [5]; [10]) [%] | recovery at 29 h, 1 μM (P-gp (human MDR1) [5]; [11]) [%] | recovery at 29 h, 1 μM (P-gp (human MDR1) [5]; [12]) [%] | other results
1 | O=C(c1ccc(F)cc1)C1CCN(CCn2c(=S)[nH]c3ccccc3c2=O)CC1 [Altanserin] | 0.85 | 0.451 ± 0.035 | 26.8 | 0.229 ± 0.014 | 22.1 | 3.4 ± 0.3 | 1.1 | 1.49 | 1.48 | 17 | 18 | ~20 | 
2 | O=C1CC2(CCCC2)CC(=O)N1CCCCN1CCN(c2ncccn2)CC1 [Buspirone, buspirone] |  |  |  |  |  | 20 ± 3 |  |  |  | 71 | 76 |  | 
3 | CN/C(=N/CCSCc1nc[nH]c1C)NC#N [Cimetidine, cimetidine] | 0.02 | > 1 | 99.2 | 0.938 ± 0.05 | 95.6 | 2.5 ± 0.2 |  | 0.6 | 0.19 | 78 | 73 |  | Papp A→B at 60 min, 0.5 μM (P-gp (human MDR1) [4]; MDCK-MDR1, pH 7.4): < 1 ×10⁻⁶ cm/s
4 | CN(C)CCCC1(c2ccc(F)cc2)OCc2cc(C#N)ccc21 (centres unmarked) [Citalopram, citalopram] | 0.90 | 0.973 ± 0.027 | 96.0 | 0.513 ± 0.066 | 47.9 | 7.7 ± 0.3 | 1.7 | 1.5 | 1.5 | 67 | 73 |  | 
5 | CN(C)CCC=C1c2ccccc2COc2ccccc21 [Doxepin, doxepin] |  | 0.922 ± 0.029 | 87.1 | 0.248 ± 0.05 | 33.0 | 2.2 ± 0.1 | 1.1 | 2.2 | 2.2 | 54 | 59 | ~50 | Papp A→B at 60 min, 0.5 μM (P-gp (human MDR1) [4]; MDCK-MDR1, pH 7.4): 2 ± 0.1 ×10⁻⁶ cm/s; recovery at 60 min, 0.5 μM (P-gp (human MDR1) [4]; MDCKII-MDR1 cell monolayers (transfected with human MDR1), pH 7.4): ~50%
6 | CNCCC(Oc1ccc(C(F)(F)F)cc1)c1ccccc1 (centres unmarked) [Fluoxetine, fluoxetine] |  | 0.66 ± 0.032 | 70.6 | 0.052 ± 0.005 | 5.7 |  |  |  |  |  |  |  | 
7 | NCC1(CC(=O)O)CCCCC1 [Gabapentin, gabapentin] | 0.13 |  | 99.8 |  | 93.4 | 1.6 ± 0.2 | 0.5 | 0.9 | 0.11 | 86 | 85 |  | fraction unbound at 5 h, 1 μM ([2]; isolated protein): 0.984 ± 0.062; fraction unbound at 5 h, 1 μM ([3]; brain homogenate): 0.946 ± 0.015
8 | COc1ccc2c(c1)c(CC(=O)O)c(C)n2C(=O)c1ccc(Cl)cc1 [Indomethacin, indomethacin] | 0.13 |  |  | 0.358 ± 0.08 | 42.8 | 2.7 ± 0.3 |  | 0.78 | 0.88 | 69 | 73 |  | Kp uu at 29 h, 1 μM (P-gp (human MDR1) [5]; MDCK-MDR1, pH 7.5): ≥ 1
9 | CCN(CC)CCNC(=O)c1cc(Cl)c(N)cc1OC [Metoclopramide, metoclopramide] |  | > 1 | 98.8 | 0.878 ± 0.038 | 90.7 | 49 ± 3 | 2 | 0.96 | 1 | 66 | 66 |  | fraction unbound at 5 h, 1 μM [6]: 0.904
10 | Clc1ccc2c(c1)N=C(N1CCNCC1)c1ccccc1N2 [N-desmethylclozapine] | 0.71 | 0.892 ± 0.029 | 82.1 | 0.131 ± 0.006 | 13.9 | 4.4 ± 0.3 | 2.1 | 4.2 | 4.2 | 53 | 62 | ~50 | classification of brain penetration in vivo ([1]; Göttingen minipig Kp,uu,brain): unrestricted (unrestricted brain penetration with Kp,uu,brain > 0.7); Papp A→B at 60 min, 0.5 μM (P-gp (human MDR1) [4]; [13]): 3.6 ×10⁻⁶ cm/s; Papp B→A at 60 min, 0.5 μM (P-gp (human MDR1) [4]; [13]): 2.9 ×10⁻⁶ cm/s
11 | CC(C)NCC(O)COc1cccc2ccccc12 (centres unmarked) [Propranolol, propranolol] | 0.76 | 0.897 ± 0.018 | 86.8 | 0.35 ± 0.012 | 37.4 | 3.7 ± 0.1 | 0.8 | 1.9 | 2.2 | 21 | 25 | ~20 | 
12 | COc1ccccc1N1CCN(CCN(C(=O)C2CCCCC2)c2ccccn2)CC1 [Way-100635] | 0.40 |  | 87.1 |  | 71.8 |  |  |  |  |  |  |  | Determined fu (%) BSA 35 μM (D = 20) ([2]; 35 μM BSA, 1 μM, 5 h, 37 ℃, Eq. 1, mean ± SD N=3): 80.2 ± 0.9%; Determined fu (%) Brain (D = 20) ([3]; 20-fold diluted brain homogenate, 1 μM, 5 h, 37 ℃, Eq. 1, mean ± SD N=3): 74.8 ± 8.0%; Kp,uu,brain in Vitro Uni-L (Det. fu) (MDCKII-MDR1 cells): 1.09; Kp,uu,brain in Vitro Uni-L (Pre.fu) (MDCKII-MDR1 cells): 0.96; assay recovery, equilibrium distribution experiment (MDCKII-MDR1 cells): around 50%; in vitro Kp,uu,brain (MDCKII-MDR1 cells; dog, MDCK-MDR1): ~ 1
13 | OC[C@@H](O)[C@@H](O)[C@H](O)[C@H](O)CO [mannitol] |  |  |  |  |  |  |  |  |  |  |  |  | mannitol flux (MDCKII-MDR1 cell line): 1–7 10^–7 cm/s
